Results taken from patent US12064426B2, “Selective inhibitors of ROCK1 and ROCK2 protein kinases and uses thereof” (GENOSCO Inc., priority 2021, dated 2024).

Columns and labels:
[1] = test system: ROCK1/2 in A7r5 cells (pMLC2 levels); assay: Inhibition of ROCK1/2 in A7r5 cells, cell-based ELISA of phospho-myosin light chain (pMLC2, Thr18/Ser19); settings: Rattus norvegicus, 1.5 h, treated with test compounds for 90 minutes, read-out: pMLC2 (cellular EC50)
Experimental: Inhibition of ROCK1/2 in A7r5 cells was measured through cell-based ELISA assay. Rat aortic smooth muscle cell line A7r5 cells were maintained and treated in DMEM medium with 10% fetal bovine serum. Cells were seeded with 5,000 cells/well in 96 well plates for 24 hours and subsequently treated with test compounds for 90 minutes. Cells were then fixed and processed according to the In-Cell ELISA Colrimetric Detection Kit manual (Thermo Scientific). Cellular phospho-myosin light chain (pMLC2, Thr18/Ser19) levels were determined after treatment with DMSO control or a test compound using the In-Cell ELISA kit.
The resulting data was applied to the following formula ‘[1-(compound/DMSO)]×100%’ to calculate the percent inhibition rate. pMLC2 data obtained from 9 points 3-fold serial dilution of compounds were applied to the nonlinear regression curve fit function of the GraphPad Prism software to calculate the cellular EC50 values.

[2] = target: T1, Recombinant ROCK1 (amino acids 1-477) (Homo sapiens, UniProt Q13464); assay: ROCK inhibition assay, LANCE Ultra TR-FRET kinase assay (ROCK1); format: biochemical; settings: 1 μM ATP, 50 nM ULight-CREBtide substrate
T1 construct: Recombinant ROCK1 (amino acids 1-477); by word order, ROCK1 from Carna Biosciences
T1 sequence (Q13464 1-477): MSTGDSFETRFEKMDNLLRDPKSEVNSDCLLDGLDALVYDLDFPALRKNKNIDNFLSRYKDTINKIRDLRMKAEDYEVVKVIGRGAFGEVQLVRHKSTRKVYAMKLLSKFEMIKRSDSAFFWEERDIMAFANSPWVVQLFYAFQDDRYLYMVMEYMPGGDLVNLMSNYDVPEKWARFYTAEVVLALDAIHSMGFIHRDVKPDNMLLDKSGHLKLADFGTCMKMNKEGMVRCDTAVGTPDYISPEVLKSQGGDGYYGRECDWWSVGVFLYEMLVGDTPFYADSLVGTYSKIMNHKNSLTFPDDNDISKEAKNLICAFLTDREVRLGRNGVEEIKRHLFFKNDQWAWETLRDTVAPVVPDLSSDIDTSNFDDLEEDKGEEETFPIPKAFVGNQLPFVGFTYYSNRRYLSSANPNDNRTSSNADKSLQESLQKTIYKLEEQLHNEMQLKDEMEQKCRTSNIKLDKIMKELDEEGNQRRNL
Procedure, shortened: (§1)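 LANCE Ultra TR-FRET kinase assay with recombinant ROCK1 (aa 1-477) or ROCK2 (aa 5-554), 50 nM ULight-CREBtide and ATP at 1 μM (ROCK1) or 4 μM (ROCK2) in HEPES pH 7.5 with MgCl2, 1 h at room temperature. EDTA stop with Eu anti-phospho-CREB Ser133 antibody; 665/615 nm read gives IC50.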

[3] = target: T2, Recombinant ROCK2 (amino acids 5-554) (Homo sapiens, UniProt O75116); assay: ROCK inhibition assay, LANCE Ultra TR-FRET kinase assay (ROCK2); format: biochemical; settings: 4 μM ATP, 50 nM ULight-CREBtide substrate
T2 construct: ROCK2 (amino acids 5-554); by word order, ROCK2 from SignalChem
T2 sequence (O75116 5-554): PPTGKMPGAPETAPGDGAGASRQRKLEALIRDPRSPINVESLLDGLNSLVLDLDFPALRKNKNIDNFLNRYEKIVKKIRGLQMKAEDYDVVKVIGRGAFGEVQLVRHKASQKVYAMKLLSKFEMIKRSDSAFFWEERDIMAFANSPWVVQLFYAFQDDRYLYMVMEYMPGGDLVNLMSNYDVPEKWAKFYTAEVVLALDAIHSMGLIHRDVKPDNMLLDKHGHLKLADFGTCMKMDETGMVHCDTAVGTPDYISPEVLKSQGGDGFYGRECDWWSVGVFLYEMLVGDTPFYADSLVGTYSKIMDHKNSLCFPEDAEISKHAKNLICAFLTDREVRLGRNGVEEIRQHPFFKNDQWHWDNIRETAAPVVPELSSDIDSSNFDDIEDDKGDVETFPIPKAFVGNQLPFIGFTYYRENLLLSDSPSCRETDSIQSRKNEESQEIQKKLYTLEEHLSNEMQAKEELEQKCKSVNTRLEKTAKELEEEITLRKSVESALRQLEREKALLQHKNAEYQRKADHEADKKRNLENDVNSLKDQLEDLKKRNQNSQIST
Procedure, shortened: as §1

For `Cc1nocc1-c1ccc2c(=O)n(Cc3cccc(O)c3)ccc2c1` [Compound 10], the EC50 [1] was less than 100 nM, the IC50 [2] was 11 to 100 nM and the IC50 [3] was less than 10 nM.

`Cn1nccc1-c1ccc2c(=O)n(Cc3cccc(O)c3)ccc2c1` [Compound 12] showed an EC50 [1] of 101 to 500 nM, an IC50 [2] of 11 to 100 nM and an IC50 [3] of less than 10 nM.

Work on `COc1cccc(Cn2ccc3cc(-c4ccncc4)ccc3c2=O)c1` [Compound 22] yielded an EC50 [1] of less than 100 nM, an IC50 [2] of less than 10 nM and an IC50 [3] of less than 10 nM.

`COc1cccc(Cn2ccc3cc(-c4ccnc(N)c4)ccc3c2=O)c1` [Compound 24] was tested, and the EC50 [1] was 101 to 500 nM, the IC50 [2] was greater than 501 nM and the IC50 [3] was 10 to 100 nM.

Molecule `CN(C)Cc1ccccc1Cn1ccc2cc(-c3ccnc(N)c3)ccc2c1=O` [Compound 25] has an EC50 [1] of 101 to 500 nM, an IC50 [2] of 11 to 100 nM and an IC50 [3] of less than 10 nM.

`Cc1n[nH]cc1-c1ccc2c(=O)n(Cc3cccc(C(=O)NCCc4ccccn4)c3)ccc2c1` [Compound 31] showed an EC50 [1] of less than 100 nM, an IC50 [2] of less than 10 nM and an IC50 [3] of less than 10 nM.

Molecule `Cc1nocc1-c1ccc2c(=O)n(Cc3cccc(C(=O)N[C@H]4CC[C@H](O)CC4)c3)ccc2c1` [Compound 75] has an EC50 [1] of 101 to 500 nM, an IC50 [2] of 101 to 500 nM and an IC50 [3] of 10 to 100 nM.

For `Cc1nocc1-c1ccc2c(=O)n(Cc3cccc(C(=O)NC4CCOCC4)c3)ccc2c1` [Compound 77], the EC50 [1] was 101 to 500 nM, the IC50 [2] was 11 to 100 nM and the IC50 [3] was less than 10 nM.

With `Cc1nocc1-c1ccc2c(=O)n(Cc3cccc(C(=O)NCC4CCN(CC(F)F)CC4)c3)ccc2c1` [Compound 82] the EC50 [1] was less than 100 nM, the IC50 [2] was 101 to 500 nM and the IC50 [3] was 10 to 100 nM.

In the case of `Cc1nocc1-c1ccc2c(=O)n(Cc3cccc(C(=O)NC4CCN(CC(F)F)CC4)c3)ccc2c1` [Compound 86], the EC50 [1] is reported as less than 100 nM, the IC50 [2] is reported as 11 to 100 nM and the IC50 [3] is reported as less than 10 nM.

Work on `Cn1nccc1-c1ccc2c(=O)n(Cc3cccc(C(=O)NC4CCN(CC(F)F)CC4)c3)ccc2c1` [Compound 107] yielded an EC50 [1] of 101 to 500 nM, an IC50 [2] of 11 to 100 nM and an IC50 [3] of less than 10 nM.

Work on `Cn1nccc1-c1ccc2c(=O)n(Cc3cccc(C(=O)NC4CCN(CC(F)(F)F)CC4)c3)ccc2c1` [Compound 108] yielded an EC50 [1] of 101 to 500 nM, an IC50 [2] of 11 to 100 nM and an IC50 [3] of less than 10 nM.

`Cc1nocc1-c1ccc2c(=O)n(Cc3cccc(C(=O)NC4COC4)c3)ccc2c1` [Compound 146] was tested, and the EC50 [1] was 501 to 1000 nM, the IC50 [2] was 101 to 500 nM and the IC50 [3] was 10 to 100 nM.

For `Cn1nccc1-c1ccc2c(=O)n(Cc3cc(F)cc(C(=O)N[C@H]4CC[C@@H](O)CC4)c3)ccc2c1` [Compound 165], the EC50 [1] was 501 to 1000 nM, the IC50 [2] was 101 to 500 nM and the IC50 [3] was 10 to 100 nM.

Work on `Nc1cc(-c2ccc3c(=O)n(Cc4cccc(C(=O)NCc5ccccc5CO)c4)ccc3c2)ccn1` [Compound 184] yielded an EC50 [1] of less than 100 nM, an IC50 [2] of 101 to 500 nM and an IC50 [3] of 10 to 100 nM.

For `Nc1cc(-c2ccc3c(=O)n(Cc4cccc(C(=O)NCCc5ccccn5)c4)ccc3c2)ccn1` [Compound 186], the EC50 [1] was less than 100 nM, the IC50 [2] was 11 to 100 nM and the IC50 [3] was less than 10 nM.

With `Nc1cc(-c2ccc3c(=O)n(Cc4cccc(C(=O)Nc5ccc6c(c5)CCNC6)c4)ccc3c2)ccn1` [Compound 188] the EC50 [1] was less than 100 nM, the IC50 [2] was 11 to 100 nM and the IC50 [3] was less than 10 nM.

Work on `CNC(=O)c1cccc([C@@H](C)n2cnc3cc(-c4cn[nH]c4C(F)(F)F)ncc3c2=O)c1` [Compound 568, (R)—N-methyl-3-(1-(4-oxo-7-(5-(trifluoromethyl)-1H-pyrazol-4-yl)pyrido[4,3-d]pyrimidin-3(4H)-yl)ethyl)benzamide] yielded an IC50 [2] of 11 to 100 nM and an IC50 [3] of less than 10 nM.

`CNC(=O)c1cccc([C@@H](C)n2cnc3cc(-c4cn[nH]c4Cl)ncc3c2=O)c1` [Compound 569] showed an IC50 [2] of less than 10 nM and an IC50 [3] of less than 10 nM.

`CNC(=O)c1cccc([C@@H](C)n2cnc3cc(-c4cn[nH]c4F)ncc3c2=O)c1` [Compound 570] was tested, and the IC50 [2] was less than 10 nM and the IC50 [3] was less than 10 nM.

`CNC(=O)c1cccc([C@@H](C)n2cnc3cc(-c4cn[nH]c4OC)ncc3c2=O)c1` [Compound 571] gave an IC50 [2] of 11 to 100 nM and an IC50 [3] of less than 10 nM.

`CNC(=O)c1cccc([C@@H](C)n2cnc3cc(-c4conc4C)ncc3c2=O)c1` [Compound 572] was tested, and the IC50 [2] was 101 to 500 nM and the IC50 [3] was 10 to 100 nM.
